Results published in US20230192765A1, “PEPTIDES TARGETING SHP2 AND USES THEREOF” (UNIVERSITÀ DEGLI STUDI DI ROMA "TOR VERGATA", priority 2020, published 2023).
*1 amine or outer side, *2 acyl side, *3 side chain or, on linkers, in order; H or OH if unused. Where a SMILES comes first, the peptide text is derived from it. [ ]: non-standard residue; d: D form. 5,6‑carboxyfluorescein = CF, 5,6-carboxyfluorescein label; CF = 5,6-carboxyfluorescein, N-terminal label; pY = N[C@@H](Cc1ccc(OP(=O)(O)O)cc1)C(=O)O; Cysteamide = C(CS[*:3])N[*:1]

Key:
N-SH2 domain of SHP2 [1] = molecular target: T1, N-SH2 domain of SHP2 (Homo sapiens, UniProt Q06124); assay: Fluorescence anisotropy displacement assay; assay type: binding; conditions: for effect of sequence length on the binding affinity: [CF-P9]=1.0 nM, [N-SH2]= 40 nM, relative to P9
T1 construct: constructs of the N-SH2 (residues 2-111), C-SH2 (109-217) and PTP (212-528) domains; His6 (esaHis); made in house; host or cells: E. coli (DE3) Rosetta2
T1 sequence (Q06124 2-111): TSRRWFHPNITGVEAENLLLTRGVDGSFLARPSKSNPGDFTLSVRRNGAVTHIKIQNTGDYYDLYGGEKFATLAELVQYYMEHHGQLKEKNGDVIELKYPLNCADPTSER

[2] = molecular target: T2, SHP2 PTP domain (SHP2 construct lacking the N-SH2 domain) (Homo sapiens, UniProt Q06124); assay: Malachite green phosphatase assay, dephosphorylation of phosphopeptides; assay type: biochemical; conditions: phosphopeptide 100 µM; enzyme 95 nM
T2 construct: the isolated PTP domain preceded by the C-SH2 domain (residues 105-528); His6 (esaHis); made in house; host or cells: E. coli (DE3) Rosetta2
T2 sequence (Q06124 105-528): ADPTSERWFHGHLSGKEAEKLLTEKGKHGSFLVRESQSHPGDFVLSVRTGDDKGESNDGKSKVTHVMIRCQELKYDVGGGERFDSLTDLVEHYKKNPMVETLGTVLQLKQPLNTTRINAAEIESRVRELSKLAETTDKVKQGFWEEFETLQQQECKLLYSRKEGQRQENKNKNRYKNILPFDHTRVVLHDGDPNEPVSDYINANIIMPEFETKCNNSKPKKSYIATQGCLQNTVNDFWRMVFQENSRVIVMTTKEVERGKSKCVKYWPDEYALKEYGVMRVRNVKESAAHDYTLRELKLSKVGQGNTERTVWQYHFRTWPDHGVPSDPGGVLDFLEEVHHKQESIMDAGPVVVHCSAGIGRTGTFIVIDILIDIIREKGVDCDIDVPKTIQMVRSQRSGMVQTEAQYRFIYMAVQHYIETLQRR
Description: A SHP2 construct lacking the N-SH2 domain (i.e. the first 104 residues) was used at a 95 nM concentration. Phosphopeptides were added at a 100 µM concentration and the phosphate released was measured at different times. From the linear region of the phosphate versus time curve, the variation in absorbance at 655 nm in 1 min, due to phosphate released, was calculated and plotted.
The ability of SHP2 to dephosphorylate the phosphopeptides was evaluated through a malachite green phosphatase assay (PTP assay kit 1 Millipore, MA, USA). The BTAM peptide and the following monophosphorylated peptides derived from known SHP2 substrates were used for comparison: DKQVEpYLDLDL (SEQ ID NO:6) (GAB1Y657), EEENIpYSVPHD (SEQ ID NO:7) (p190A/RhoGAPY1105), and VDADEpYLIPQQ (SEQ ID NO:8) (EGFRY1016) (Primm) [Sun et al., 2009; Ren et al., 2011]. SHP2Δ104 or PTP (2.38 pmol) were incubated with 100 µM of each phosphopeptide (total volume 25 µl) for different times. The reaction was stopped by adding 100 µl of malachite green solution. After 15 min, absorbance was read at 655 nm using a microplate reader, and compared with a phosphate standard curve to determine the release of phosphate. Data obtained in the linear region of the curve were normalized on the reaction time (1 min).

NIH3T3 cells = assay: Peptide toxicity in the cell uptake experiments (Sytox); assay type: cell-based; conditions: Pep1 at 10 µM
Description: Cell viability in the FACS experiment was determined by using Sytox fluorescence.
Cells were incubated for different times and then washed, collected and stained with SYTOX blue (1 mM, Invitrogen™) to identify the viable population and the green fluorescence of CFP9W5 was recordered to measure peptide uptake. Data were analysed with Kaluza Analysis Software (Beckman Coulter).

N-SH2 domain of SHP2 [3] = molecular target: T1, N-SH2 domain of SHP2; assay: Fluorescence anisotropy direct binding assay, N-SH2 domain; conditions: for standard free energy of binding: assuming a 1 M standard state
Description: Anisotropy measurements were carried out using a Horiba Fluoromax 4 spectrofluorimeter.
For the binding assays, the requested peptide amount (1 nM or 0.1 nM) was diluted in buffer (HEPES 10 mM, NaCl 150 mM, EDTA 1 mM, TCEP 1 mM, fluorescence buffer henceforth) and its anisotropy signal was recorded. The peptide was then titrated with increasing protein amounts, until the anisotropy signal reached a plateau at its maximum value, or up to a protein concentration where protein aggregation and consequent light scattering affected the anisotropy values (usually above 1 µM). The measurements of CF-labeled peptides were carried out using an excitation wavelength of 470 nm and collecting the anisotropy values at an emission wavelength of 520 nm. A 495 nm emission filter was used. For the Cy3-labeled peptides, excitation and emission wavelengths of 520 and 560 nm were used.
The Kd values were obtained fitting the data with the following equation, described in Van der Weert 2011, which avoids the need for the commonly used (but often unjustified) approximation of the concentration of unbound protein with the total concentration:
Here, [P]T and [L]T are the total protein and ligand concentrations, while r, ro and rmax are the anisotropy values at a given protein concentration, in the absence of protein and when the peptide is completely bound, respectively.

[4] = molecular target: N-SH2 domain of SHP2 (residues 2-111), recombinant (human) (UniProt Q06124); assay: fluorescence anisotropy direct binding, labelled peptide titrated with protein
[5] = molecular target: T3, N-SH2 domain of SHP2 (residues 2-111), recombinant (human, UniProt Q06124 2-111); assay: as above
T3 construct: range 2-111; Expressed in E. coli from pET-26b and purified on Ni-NTA
T3 sequence (looked up): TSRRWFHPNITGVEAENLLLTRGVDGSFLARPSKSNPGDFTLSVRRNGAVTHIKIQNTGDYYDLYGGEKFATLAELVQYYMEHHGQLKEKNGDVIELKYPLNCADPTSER

CC[C@H](C)[C@H](NC(=O)[C@H](Cc1ccc(OP(=O)(O)O)cc1)NC(=O)[C@H](CC(N)=O)NC(=O)[C@H](CC(C)C)NC(C)=O)C(=O)N[C@@H](CC(=O)O)C(=O)N[C@@H](CC(C)C)C(=O)N[C@@H](CC(=O)O)C(=O)N[C@@H](Cc1ccccc1)C(N)=O [Peptide P8F5, LN-pY-IDLDF] (Ac-LN[pY]IDLDF-NH2)
IC50 (N-SH2 domain of SHP2 [1]): 16 ± 1 nM | Ki (N-SH2 domain of SHP2 [1]): 9 ± 2 nM

CC[C@H](C)[C@H](NC(=O)[C@H](Cc1ccc(OP(=O)(O)O)cc1)NC(=O)[C@H](CC(N)=O)NC(=O)[C@H](CC(C)C)NC(C)=O)C(=O)N[C@@H](CC(=O)O)C(=O)N[C@@H](CC(C)C)C(=O)N[C@@H](CCC(=O)O)C(=O)N[C@@H](Cc1c[nH]c2ccccc12)C(N)=O [Peptide P8E4W5, LN-pY-IDLEW] (Ac-LN[pY]IDLEW-NH2)
IC50 (N-SH2 domain of SHP2 [1]): 11 ± 1 nM | Ki (N-SH2 domain of SHP2 [1]): 5 ± 2 nM

CC[C@H](C)[C@H](NC(=O)[C@H](Cc1ccc(OP(=O)(O)O)cc1)NC(=O)[C@H](CC(N)=O)NC(=O)[C@H](CC(C)C)NC(C)=O)C(=O)N[C@@H](CC(=O)O)C(=O)N[C@@H](CC(C)C)C(=O)N[C@@H](CC(=O)O)C(=O)N[C@@H](Cc1c[nH]c2ccccc12)C(N)=O [Peptide P8W5, LN-pY-IDLDW]
dephosphorylation by SHP2 [2]: dephosphorylation was indeed observed, although to a lower extent than for other phosphopeptides

CC(=O)N[C@@H](CCCCN)C(=O)N[C@@H](CCC(=O)O)C(=O)N[C@H](C(=O)N[C@@H](Cc1c[nH]c2ccccc12)C(=O)N[C@@H](Cc1c[nH]c2ccccc12)C(=O)N[C@@H](CCC(=O)O)C(=O)N[C@H](C(=O)N[C@@H](Cc1c[nH]c2ccccc12)C(=O)N[C@@H](Cc1c[nH]c2ccccc12)C(=O)N[C@H](C(=O)N[C@@H](CCC(=O)O)C(=O)N[C@@H](Cc1c[nH]c2ccccc12)C(=O)N[C@@H](CO)C(=O)N[C@@H](CCC(N)=O)C(=O)N1CCC[C@H]1C(=O)N[C@@H](CCCCN)C(=O)N[C@@H](CCCCN)C(=O)N[C@@H](CCCCN)C(=O)N[C@@H](CCCNC(=N)N)C(=O)N[C@@H](CCCCN)C(=O)N[C@H](C(=O)NCCS)C(C)C)[C@@H](C)O)[C@@H](C)O)[C@@H](C)O [Pep1, reference compound] (Ac-KETWWETWWTEWSQPKKKRKV-Cysteamide)
toxicity (NIH3T3 cells): negligible

CC[C@H](C)[C@H](NC(=O)[C@H](Cc1ccc(OP(=O)(O)O)cc1)NC(=O)[C@H](CC(N)=O)NC(=O)[C@H](CC(C)C)NC(C)=O)C(=O)N[C@@H](CC(=O)O)C(=O)N[C@@H](CC(C)C)C(=O)N[C@@H](CC(=O)O)C(=O)N[C@@H](CC(C)C)C(N)=O [Peptide P8, LN-pY-IDLDL] (Ac-LN[pY]IDLDL-NH2)
IC50 (N-SH2 domain of SHP2 [1]): 47 ± 4 nM | Ki (N-SH2 domain of SHP2 [1]): 25 ± 4 nM | effect of sequence length on the binding affinity (N-SH2 domain of SHP2 [1]): No significant loss in affinity | dephosphorylation by SHP2 [2]: dephosphorylation was indeed observed, although to a lower extent than for other phosphopeptides

N-pY-IDLDL (Ac-N[pY]IDLDL-NH2; SMILES CC[C@H](C)[C@H](NC(=O)[C@H](Cc1ccc(OP(=O)(O)O)cc1)NC(=O)[C@H](CC(N)=O)NC(C)=O)C(=O)N[C@@H](CC(=O)O)C(=O)N[C@@H](CC(C)C)C(=O)N[C@@H](CC(=O)O)C(=O)N[C@@H](CC(C)C)C(N)=O) [Peptide P7]
effect of sequence length on the binding affinity (N-SH2 domain of SHP2 [1]): drastic perturbation of complex stability

CF-GLN- Y-IDLDL ({5,6‑carboxyfluorescein}-GLNYIDLDL-NH2) [CF-P9Y0]
standard free energy of binding (N-SH2 domain of SHP2 [3]): -7.07 ± 0.048 kcal/mol | affinity lower than phosphorylated peptide (N-SH2 domain of SHP2 [3]; unphosphorylated vs phosphorylated labeled peptide): approximately 100 times

CF-GLN-pY-IDLDL ({5,6‑carboxyfluorescein}-GLN[pY]IDLDL-NH2) [CF-P9]
standard free energy of binding (N-SH2 domain of SHP2 [3]): -9.94 ± 0.024 kcal/mol

CF-P9E4W5 (CF-GLN-pY-IDLEW) (peptide)
Kd [4]: 8.2 nM

{CF}-GLN[pY]IDLDL-NH2 [CF-P9 (CF-GLN-pY-IDLDL), fluorescently labeled IRS-1 pY1172 peptide analog]
Kd [5]: 53 nM
